Data from patent US7211600B2, “Methods of modulating c-kit tyrosine protein kinase function with indolinone compounds” (Sugen Inc., priority 1999, dated 2007).
Where two headings read alike, the source gives them in different places.

Tests used:
[1] = test system: MO7E cells; experiment: Apoptosis assay: activated caspase-3 by FACS; type: cell-based, human
Experimental: (§1) Samples were assayed at 24 and 48 hours. To measure activated caspase-3, samples were washed with PBS and permeabilized with ice-cold 70% ethanol. The cells were then stained with PE-conjugated polyclonal rabbit anti-active caspase-3 and analyzed by FACS. To measure cleaved PARP, samples were lysed and analyzed by western blotting with an anti-PARP antibody.

[2] = test system: MO7E cells; experiment: Apoptosis assay: cleaved PARP by western blotting; type: cell-based, human
Experimental: as §1

[3] = biological target: c-kit (Homo sapiens, UniProt P10721); details: MO7E cells, 250 ng/ml rh-SCF 15 min, pre-treatment Compound Eight 2 hours, Compound Six 22 hours
Sequence of c-kit (P10721 26-976): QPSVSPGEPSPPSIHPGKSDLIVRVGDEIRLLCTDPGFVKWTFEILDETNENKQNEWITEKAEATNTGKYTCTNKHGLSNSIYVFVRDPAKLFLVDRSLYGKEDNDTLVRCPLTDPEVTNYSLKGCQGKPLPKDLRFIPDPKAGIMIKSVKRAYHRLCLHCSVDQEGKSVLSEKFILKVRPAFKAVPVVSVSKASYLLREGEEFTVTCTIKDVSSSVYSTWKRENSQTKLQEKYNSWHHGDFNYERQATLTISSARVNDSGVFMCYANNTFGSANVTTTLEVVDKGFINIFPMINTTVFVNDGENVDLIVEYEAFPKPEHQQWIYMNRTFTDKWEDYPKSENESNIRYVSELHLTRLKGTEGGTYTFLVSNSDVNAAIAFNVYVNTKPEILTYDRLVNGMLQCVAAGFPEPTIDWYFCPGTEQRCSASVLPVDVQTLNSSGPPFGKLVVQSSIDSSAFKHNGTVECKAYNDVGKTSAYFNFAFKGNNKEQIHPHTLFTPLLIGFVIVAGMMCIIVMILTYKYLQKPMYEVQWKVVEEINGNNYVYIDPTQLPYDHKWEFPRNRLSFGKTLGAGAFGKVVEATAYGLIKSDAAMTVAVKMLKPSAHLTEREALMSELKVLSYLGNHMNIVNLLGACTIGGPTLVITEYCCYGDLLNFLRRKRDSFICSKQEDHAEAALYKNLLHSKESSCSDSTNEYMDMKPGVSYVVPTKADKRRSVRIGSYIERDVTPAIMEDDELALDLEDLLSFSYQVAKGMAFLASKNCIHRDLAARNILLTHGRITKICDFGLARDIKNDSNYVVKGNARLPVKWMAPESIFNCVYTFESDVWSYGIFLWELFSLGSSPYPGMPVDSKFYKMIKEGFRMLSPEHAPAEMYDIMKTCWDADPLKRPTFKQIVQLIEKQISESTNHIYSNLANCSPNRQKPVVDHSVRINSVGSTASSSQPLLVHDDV
Experimental: (§2) MO7E cells, a human myeloid leukemia cell line, were maintained in RPMI-1640 medium supplemented with 10% fetal calf serum and 10 ng/ml each IL-3 and GM-CSF.
MO7E cells were serum starved overnight in 0.1% serum. […] Cells were stimulated with 250 ng/ml rh-SCF for 15 minutes. Following stimulation, cells were lysed and immunoprecipitated with an anti-c-kit antibody. Phosphotyrosine and protein levels were determined by western blotting.

[4] = test system: MO7E cells; experiment: cells; details: Homo sapiens, 48 h, read-out: IC50 value for inhibition of proliferation
Experimental: as §2

Row | inhibition of c-kit tyrosine phosphorylation ([3]; 0.01 μM) | inhibition of c-kit tyrosine phosphorylation ([3]; 0.1 μM) | inhibition of c-kit tyrosine phosphorylation ([3]; 1 μM) | inhibition of c-kit tyrosine phosphorylation ([3]; 10 μM) | SMILES | effect on number of apoptotic cells (activated caspase-3) ([1]; 5 μM, 24 or 48 hours, +/- SCF stimulation) | effect on number of apoptotic cells (activated caspase-3) ([1]; 25 μM, 24 hours, +/- SCF stimulation) | increase in the number of apoptotic cells (activated caspase-3) ([1]; 25 μM, 48 hours, SCF stimulation, compared to untreated SCF stimulated cells) | effect on number of apoptotic cells (activated caspase-3) ([1]; 25 μM, 48 hours, absence of SCF stimulation) | increase in cleaved PARP ([2]; 5 μM, both timepoints (24 and 48 hours)) | increase in the amount of cleaved PARP ([2]; 25 μM, 48 hours) | change of the cleaved PARP effect with SCF stimulation ([2]; 25 μM, 48 hours, with SCF stimulation) | effect on number of apoptotic cells (activated caspase-3) ([1]; 5 μM, 24 hours, with or without SCF stimulation) | IC50 [4] [µM]
1 | – | – | – | – | Cc1cc(C)c(/C=C2\C(=O)Nc3ccccc32)[nH]1 [Compound Eight] | measurable but smaller number of apoptotic cells | measurable but smaller number of apoptotic cells | approximately 50% | slight effect | very minimal increase | greatest increase | augmented slightly | – | –
2 | no inhibition | no inhibition | partial inhibition | complete inhibition | Cc1[nH]c(/C=C2\C(=O)Nc3ccccc32)c(C)c1CCC(=O)O [Compound Six] | – | – | – | – | – | – | – | no effect | 5 to 7
